Results reported in patent US20230115176A1 (Ra Pharmaceuticals, Inc., priority 2019, published 2023).
Converted amounts (≈) assume the structure as drawn.

Key:
[1] = system: P-glycoprotein (P-gp, MDR1); test: Permeability assay, bidirectional transport, efflux ratio (Example 30, Table 34); type: in vitro ADME, canine; details: dog, MDCK-MDR1, pH 7.4; read-out: MDCK-MDR efflux ratio
Protocol: (§1) Permeability assays were carried out to provide a preliminary indication of suitability for oral dosing and compound permeability across the blood brain barrier. Unidirectional and bidirectional compound transport across Madin Darby canine kidney (MDCK) cell monolayers was assessed. For unidirectional transport assessment, transport across MDCK wild type (MDCK-WT) cell monolayers was assessed. For bidirectional transport, transport across MDCK-MDR1 cell monolayers was assessed. MDCK-MDR1 cells express the MDR1 gene encoding the P-glycoprotein (P-gp) efflux protein.
(§2) MDCK-WT and MDCK-MDR1 cells were plated onto permeable polycarbonate supports in 12-well Costar transwell plates and allowed to grow and differentiate for 3 days. After 3 days in culture, the culture medium (DMEM supplemented with 10% FBS) was removed from both sides of the transwell inserts and cells were rinsed with warm HBSS. After the rinse step, the chambers were filled with warm transport buffer (HBSS containing 10 mM HEPES, 0.25% BSA, pH 7.4) and the plates were pre-incubated at 37° C. for 30 minutes prior to TEER (Trans Epithelial Electric Resistance) measurements.
(§3) The buffer in the donor chamber (apical side for A-to-B assay, basolateral side for B-to-A assay) was removed and replaced with the working solution (3 μM test compound and 10 μM for control compounds in transport buffer). The plates were then placed at 37° C. under light agitation. At designated time points (30, 60 and 90 min), an aliquot of transport buffer from the receiver chamber was removed and replenished with fresh transport buffer. Samples were quenched with ice-cold ACN containing internal standard and then centrifuged to pellet protein. Resulting supernatants were further diluted with 50/50 ACN/H2O (Atenolol diluted in just water) and submitted for LC-MS/MS analysis. Apparent permeability (Pap) values were calculated from duplicate determinations. Atenolol and propranolol were tested as low and […] permeability references.
Efflux ratios were calculated for bidirectional transport across MDCK-MDR1 cell monolayers as an indication of compound efflux by P-gp. The efflux ratio is calculated using the ratio of mean Papp values for B to A transport to mean Papp values for A to B transport [Papp(BA)/Papp(AB)].

[2] = Kinetic solubility in PBS pH 7.4, HPLC-UV (Example 21, Table 27); type: physicochemical; details: phosphate buffered saline, aqueous buffer, kinetic from dmso stock, 0.5 M PBS, shaken minimum 24 h at approximately 25° C., HPLC-UV 270 nm
In short: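 Supernatant measured by HPLC-UV (270 nm) against a DMSO calibration curve of 15.6–500.0 μM after filtration. Triplicate samples were made from 10 mM DMSO stock in 0.05 M phosphate buffer pH 7.4 (5% DMSO) and shaken at least 24 h at about 25 °C.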

[3] = Permeability assay, unidirectional transport, Papp (Example 30, Table 34); type: in vitro ADME, canine; details: dog, pH 7.4; MDCK-WT cell monolayers, A-to-B, 3 μM test compound, 37° C., duplicate determinations
Protocol: as §1, §2, §3
Papp values indicate extent of compound permeation across monolayers.

Human C5 [4] = biological target: T1, Human C5 (Homo sapiens, UniProt P01031); test: Red blood cell (RBC) hemolysis assay, luminescent (Example 13, Table 22); type: cell-based; details: sheep EA cells, […] C5-depleted human serum, 0.5 nM human C5, 1 hour 37° C., luminescence
T1 construct: purchased Complement Technology
Text: Compound CU0136 is a racemic mixture of Compound CU0186 and CU0187. Numbers in parenthesis following compound numbers indicate alternate enantiomers (as distinguished by retention time during chromatographical separation).

Human C5 [5] = biological target: T1, Human C5; test: Hemolysis assay, luminescent, classical complement pathway (Example 4, Table 7); type: cell-based; details: sheep EA cells, 1.5% C5-depleted human serum, 0.5 nM human C5, luminescence readout
Text: Numbers in parenthesis following the compound number indicate alternate enantiomers (as distinguished by retention time during chromatographical separation).

Human C5 [6] = biological target: T1, Human C5; test: Red blood cell (RBC) hemolysis assay, luminescent (Example 28, Table 32); type: cell-based; details: sheep EA cells, 1.5% C5-depleted human serum, 0.5 nM human C5, 1 hour at 37° C., luminescence (Table 32)
[7] = biological target: T2, human C5 complement protein (Homo sapiens, UniProt P01031); test: Surface plasmon resonance (SPR), immobilized human C5, 37° C. (Example 18, Table 24); type: binding; details: lowest value obtained where a range of concentrations was analyzed
[8] = biological target: T2, human C5 complement protein; test: Surface plasmon resonance (SPR), immobilized human C5, 37° C. (Example 27, Table 31); type: binding; details: lowest value obtained where a range of concentrations was analyzed (Table 31)

T2 sequence (P01031 19-1676): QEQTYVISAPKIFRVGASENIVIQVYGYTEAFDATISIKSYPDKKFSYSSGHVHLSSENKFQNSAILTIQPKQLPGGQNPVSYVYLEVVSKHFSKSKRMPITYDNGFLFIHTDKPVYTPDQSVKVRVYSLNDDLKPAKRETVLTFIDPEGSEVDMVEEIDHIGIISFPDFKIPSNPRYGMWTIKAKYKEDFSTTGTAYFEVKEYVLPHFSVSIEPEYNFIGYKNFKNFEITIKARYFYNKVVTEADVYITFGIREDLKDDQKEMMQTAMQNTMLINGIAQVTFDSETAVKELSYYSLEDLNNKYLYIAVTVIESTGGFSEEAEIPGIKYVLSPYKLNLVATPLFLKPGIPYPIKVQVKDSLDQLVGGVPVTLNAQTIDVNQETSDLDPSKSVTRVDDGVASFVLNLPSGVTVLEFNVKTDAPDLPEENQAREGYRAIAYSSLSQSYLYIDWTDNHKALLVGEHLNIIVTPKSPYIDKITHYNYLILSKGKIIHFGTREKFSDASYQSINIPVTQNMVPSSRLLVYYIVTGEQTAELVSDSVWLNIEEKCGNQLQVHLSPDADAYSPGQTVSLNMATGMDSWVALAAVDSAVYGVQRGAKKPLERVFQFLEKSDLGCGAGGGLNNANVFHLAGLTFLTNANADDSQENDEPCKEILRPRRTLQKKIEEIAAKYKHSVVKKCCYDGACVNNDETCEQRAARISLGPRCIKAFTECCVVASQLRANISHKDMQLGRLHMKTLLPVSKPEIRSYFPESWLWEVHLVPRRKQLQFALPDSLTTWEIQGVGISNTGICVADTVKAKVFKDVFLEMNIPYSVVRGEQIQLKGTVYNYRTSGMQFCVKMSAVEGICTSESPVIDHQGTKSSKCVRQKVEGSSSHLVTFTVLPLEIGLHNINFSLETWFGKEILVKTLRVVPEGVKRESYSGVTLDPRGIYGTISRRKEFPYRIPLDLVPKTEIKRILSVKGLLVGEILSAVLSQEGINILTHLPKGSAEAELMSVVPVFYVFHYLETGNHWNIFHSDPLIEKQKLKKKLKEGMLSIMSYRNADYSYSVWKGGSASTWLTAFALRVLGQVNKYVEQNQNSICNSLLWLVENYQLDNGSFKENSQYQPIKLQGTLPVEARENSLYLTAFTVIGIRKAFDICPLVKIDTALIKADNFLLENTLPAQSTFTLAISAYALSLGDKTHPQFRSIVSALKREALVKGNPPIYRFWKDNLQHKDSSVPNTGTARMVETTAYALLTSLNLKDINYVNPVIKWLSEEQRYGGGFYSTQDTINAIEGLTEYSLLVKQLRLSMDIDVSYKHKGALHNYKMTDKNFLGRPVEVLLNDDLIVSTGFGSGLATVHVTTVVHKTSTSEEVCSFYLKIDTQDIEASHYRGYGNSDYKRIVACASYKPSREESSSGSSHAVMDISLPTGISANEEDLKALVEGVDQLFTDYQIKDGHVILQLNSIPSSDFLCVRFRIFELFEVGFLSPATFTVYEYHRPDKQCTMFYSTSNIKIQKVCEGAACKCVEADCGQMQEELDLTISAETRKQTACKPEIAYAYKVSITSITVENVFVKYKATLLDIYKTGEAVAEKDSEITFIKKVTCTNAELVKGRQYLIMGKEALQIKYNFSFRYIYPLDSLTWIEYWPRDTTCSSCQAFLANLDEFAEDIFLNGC
T1 sequence (P01031 19-1676): as above

COc1cc(CNC(C)=O)ccc1CN1CCCN(c2ccc(OC)c(OCCCC3CC3)c2)C1=O [CU0501]
efflux ratio at 3 μM [1]: 60
solubility kinetic [2]: 195 µM (≈ 96.6 µg/mL)
Papp A→B at 3 μM [3]: 24.2 ×10⁻⁶ cm/s

CCCCCOc1cc(N2CCCN(Cc3ccc(CNC(C)=O)cc3OC)C2=O)ccc1OC [CU0160]
efflux ratio at 3 μM [1]: 61
solubility kinetic [2]: 413 µM (≈ 200 µg/mL)
Papp A→B at 3 μM [3]: 21.6 ×10⁻⁶ cm/s
IC50 (Human C5 [4]): 0.0235 µM

CCCCCOc1cc(NC(=O)N(CCC(=O)O)Cc2cc(F)ccc2OC)ccc1OC [SM0214]
IC50 (Human C5 [5]): 0.175 µM

CCCCCOc1cc(N2CCCN(Cc3ccnc4c3c(Cl)cn4CC(=O)N(C)C)C2=O)cnc1OC [CU0616]
efflux ratio at 3 μM [1]: 18
Papp A→B at 3 μM [3]: 29 ×10⁻⁶ cm/s

CCCCCOc1cc(NC(=O)N(CCOCc2cn(C)cn2)Cc2cc(F)ccc2OC)ccc1OC [SM0217]
IC50 (Human C5 [5]): 0.21 µM

CCCCCOc1cc(N2CCCN(Cc3ccnc4c3c(Cl)cn4CC(=O)N3C[C@H]4C[C@@H]3CO4)C2=O)ccc1OC [CU0510]
efflux ratio at 3 μM [1]: 71
Papp A→B at 3 μM [3]: 22.7 ×10⁻⁶ cm/s

CCCCCOc1cc(N2CC[C@H](C)N(Cc3ccnc4c3c(Cl)cn4CC(=O)N3CC[C@H](N4CCOCC4)C3)C2=O)ccc1OC [SC0100]
IC50 (Human C5 [6]): 0.0009 µM
efflux ratio at 3 μM [1]: 62
Papp A→B at 3 μM [3]: 14.3 ×10⁻⁶ cm/s

CCCCCOc1cc(N2CCCN(Cc3ccc(CNC(C)=O)cc3OC)C2=O)ncc1OC [CU0579]
efflux ratio at 3 μM [1]: 31
solubility kinetic [2]: 339 µM (≈ 164 µg/mL)
Papp A→B at 3 μM [3]: 23.5 ×10⁻⁶ cm/s

COc1cc(CC(=O)N2CCOCC2)ccc1CN1CCCN(c2ccc(OC)c(OCCCC(C)(F)F)c2)C1=O [CU0145]
efflux ratio at 3 μM [1]: 83
solubility kinetic [2]: 278 µM (≈ 160 µg/mL)
Papp A→B at 3 μM [3]: 16.8 ×10⁻⁶ cm/s
IC50 (Human C5 [4]): 0.015 µM

COc1cc(CC(=O)N(C)C)ccc1CN1CCCN(c2ccc(OC)c(OCCCC3CC3)c2)C1=O [CU0555]
efflux ratio at 3 μM [1]: 15
Kd [7]: 0.00106 µM
Papp A→B at 3 μM [3]: 23 ×10⁻⁶ cm/s

COc1ccc(NC(=O)N[C@H]2COC(C)(C)Oc3c(OC)cccc32)cc1OCCCC(C)C [SM0218]
IC50 (Human C5 [5]): 0.0486 µM

CCCCCOc1cc(N2CCCN(Cc3ccnc4c3c(Cl)cn4CC(=O)N(C)C)C2=O)ccc1OC [CU0261]
efflux ratio at 3 μM [1]: 17
solubility kinetic [2]: 31 µM (≈ 16.8 µg/mL)
Papp A→B at 3 μM [3]: 26.1 ×10⁻⁶ cm/s
IC50 (Human C5 [4]): 0.011 µM

CCCCCOc1cc(NC(=O)N(CC(=O)O)Cc2cc(F)ccc2OC)ccc1OC [SM0204]
IC50 (Human C5 [5]): 0.753 µM

CCCCCOc1cc(NC(=O)N(CC(=O)NCC2CC(=O)N(C)C2)Cc2cc(F)ccc2OC)ccc1OC (stereo not drawn) [SM0208]
IC50 (Human C5 [5]): 0.914 µM

CCCCCOc1cc(NC(=O)N(CC(N)=O)Cc2cc(F)ccc2OC)ccc1OC [SM0213]
IC50 (Human C5 [5]): 0.903 µM

CCCCCOc1cc(NC(=O)N(CC(=O)NC2CCN(C(C)=O)CC2)Cc2cc(F)ccc2OC)ccc1OC [SM0209]
IC50 (Human C5 [5]): 1.14 µM

CCCCCOc1cc(NC(=O)N(CC(=O)N2CCOCC2)Cc2cc(F)ccc2OC)ccc1OC [SM0210]
IC50 (Human C5 [5]): 2.12 µM

CCCCCOc1cc(N2CC(CO)CN(Cc3ccc(CC(=O)N4CCNC(=O)C4)cc3OC)C2=O)ccc1OC (stereo not drawn) [SC0178]
IC50 (Human C5 [6]): 0.0048 µM
solubility kinetic [2]: 443 µM (≈ 258 µg/mL)
Kd [8]: 0.00107 µM

CCCCCOc1cc(NC(=O)N2CCC[C@@H]2c2ccccc2Cl)c(CNC(=O)CCl)cc1OC [SM0203]
IC50 (Human C5 [5]): 0.255 µM

CCCCCOc1cc(NC(=O)N2CCC[C@@H]2c2ccccc2Cl)c(CNC(=O)/C=C/CN(C)C)cc1OC [SM0202]
IC50 (Human C5 [5]): 0.24 µM

C#CC(=O)NCc1cc(OC)c(OCCCCC)cc1NC(=O)N1CCC[C@@H]1c1ccccc1Cl [SM0201]
IC50 (Human C5 [5]): 0.0895 µM

CCCCCOc1cc(N2CC(C)CN(Cc3ccc(CC(=O)N4CCNC(=O)C4)cc3OC)C2=O)ccc1OC (stereo not drawn) [SC0163]
IC50 (Human C5 [6]): 0.0028 µM
solubility kinetic [2]: 450 µM (≈ 255 µg/mL)
Kd [8]: 0.00089 µM
